Results reported in patent US5010076A, “1,7-fused 1H-indole-2-carboxylic acid-N-(1,4-benzodiazepin-3-yl)amides” (Kali-Chemie Pharma GmbH, priority 1989, dated 1991).

How the values were obtained:
[1] = target: T1, peripheral CCK receptors (pancreas) (Rattus norvegicus, UniProt P30551); test: peripheral CCK receptor binding affinity on rat pancreas homogenate (inhibition of 3[H]-CCK-8 binding); set-up: species or system rat (male Wistar); details: 0.3 nM 3[H]-CCK-8, 90 min, 25° C., pH 7.4, calculated from IC50 by Cheng-Prusoff, read-out: In vitro binding to peripheral CCK receptors (pancreas) pKi values (converted)
T1 construct: Whole pancreas glands from male Wistar rats with a body weight of 150-300 g; from tissue; host or cells: whole pancreas glands of male Wistar rats, washed homogenate
T1 sequence (P30551 1-444): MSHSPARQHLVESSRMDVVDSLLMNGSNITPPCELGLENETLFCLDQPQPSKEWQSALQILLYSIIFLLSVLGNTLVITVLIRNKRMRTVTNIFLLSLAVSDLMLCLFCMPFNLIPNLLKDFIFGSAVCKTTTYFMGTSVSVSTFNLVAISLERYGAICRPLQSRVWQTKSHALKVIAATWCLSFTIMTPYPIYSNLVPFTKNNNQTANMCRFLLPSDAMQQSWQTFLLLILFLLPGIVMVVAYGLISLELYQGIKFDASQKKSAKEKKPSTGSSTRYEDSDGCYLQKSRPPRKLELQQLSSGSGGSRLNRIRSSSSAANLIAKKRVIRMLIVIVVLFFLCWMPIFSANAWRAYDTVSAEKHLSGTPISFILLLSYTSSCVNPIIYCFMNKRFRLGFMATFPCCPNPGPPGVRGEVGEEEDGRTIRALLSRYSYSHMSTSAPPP
Experimental: The affinity of the compounds of formula I for peripheral CCK receptors was measured in vitro on rat pancreas homogenate. The inhibition of the binding of the physiologically relevant octopeptide CCK-8 to peripheral CCK receptors by the test substances was determined.
The receptor binding studies were carried out by a modification of the method of van Dijk et al. (J. Neuroscience 4 (1984), 1021-1033), using soya bean trypsin inhibitor (=SBTI) as protease inhibitor. ^3 [H]-CCK-8, code TRK 775, from Amersham Int., having a specific activity of 60-90 Ci/mmol, was used as tritium-labelled CCK-8.
Whole pancreas glands from male Wistar rats with a body weight of 150-300 g, which had been sacrificed by decapitation, were freed of fatty tissue and homogenized for 15 seconds in a 50-fold volume of an ice-cold test buffer solution (10 mmol 2-[4-(2-hydroxyethyl)-piperazin-1-yl]-ethanesulfonic acid (=HEPES), 130 mmol sodium chloride, 5 mmol magnesium chloride, 0.02% bacitracins, 0.01% SBTI, pH 7.4) with a Kinematica Polytron type homogenizer. The homogenates were then centrifuged at 48,000 g for 10 minutes. This washing method was repeated. After the last centrifugation, the residue which was obtained each time in the form of a pellet was suspended in a 550-fold volume of the test buffer solution and immediately used for the measurement.
For the binding test, 500 μl of the tissue homogenate were incubated with 50 μl of test buffer solution or 50 μl of a solution of the compound to be investigated and with 50 μl of a ^3 [H]-CCK-8 solution (final concentration 0.3 nM). The non-specific binding was assumed to be 0.1 μmol CCK-8. The incubation lasted 90 minutes at 25° C. All the compounds were measured 3 times at each of several concentrations.
Aqueous solutions were employed as test substance solutions and were prepared by appropriate dilution of 60×10^-4 molar aqueous stock solutions. Test substances which are sparingly soluble in water were first dissolved in 96% ethanol, and this solution was diluted with sufficient water for the ethanol concentration not to exceed 1.6% by volume in the solution to be tested.
Bound and free ^3 [H]-CCK-8 were separated by filtration through glass fiber filters. The filters were washed twice with 3 ml of HEPES solution each time and then placed in the scintillation solution (SAVE scintillation solution from Packard) in the dark overnight and counted in a Packard TriCarb 1500™liquid scintillation counter. The IC50 of the respective test substance was determined to be that concentration which caused a 50% inhibition of the specific binding of tritiated CCK-8 to the receptors. From this, the corresponding pKi value was calculated using the Cheng-Prusoff equation. […]

[2] = test system: CCK-induced gallbladder emptying; test: inhibitory effect of test substances on CCK-induced gallbladder emptying (gallbladder weight); format: in vivo, mouse (female NMRI)
Experimental: CCK causes a contraction of the muscles of the gallbladder and thus an emptying of the gallbladder. […] Intraperitoneal doses of 0.1 μg/kg CCK-8 may result in the weight of the gallbladders decreasing to about 1/10 of the original weight.
Female NMRI mice having a body weights of 20-25 g were used in groups of 10 animals each. After withdrawal of feed for 24 hours (drinking water ad libitum) the animals received an oral dose of the test substance suspended in a volume of 10 ml/kg of body weight of a 1% strength Tylose® solution (=methylcellulose) or in a volume of 10 ml/kg of body weight of a solubilizer solution which contained 5% glycerol, 87% polyethylene glycol 400, and 8% water. Two control groups each received only the Tylose® solution or the solution containing the solubilizer polyethylene glycol. One of the control groups and all the animals treated with test substance received 0.1 Ig/kg CCK-8 injected i.p. 60 minutes later.
The mice were sacrificed 5 minutes after the CCK-8 administration, and the gallbladders were excised and weighed.
The following Table C lists the percentage inhibition of the CCK-8 effect on gallbladder weights caused by the test substances.

[3] = determination of the minimum toxic dose; format: in vivo, mouse (male); details: mouse, oral; lowest dose causing death or serious symptoms of toxicity; max 300 mg/kg; 24 h
Experimental: Male mice weighing 20-25 g were given maximum oral doses of 300 mg/kg of the test substance. The animals were observed carefully for three hours for symptoms of toxicity. In addition, all symptoms and deaths were recorded for a period of 24 hours after administration. Concomitant symptoms were likewise observed and recorded. If death or serious symptoms of toxicity were observed, further mice were given increasingly lower doses. The lowest dose which caused death or serious symptoms of toxicity is indicated in the following Table A as the minimum toxic dose.

[4] = test system: CCK-induced disturbance of stomach emptying; test: effect of test substances on CCK-induced disturbances of emptying of the stomach (charcoal transport into duodenum); format: in vivo, mouse (female NMRI)
Experimental: Doses of CCK lead to substantial blockade of the transpyloric transport of chyme from the stomach into the duodenum. The ability of the test substances to eliminate this blocking effect of CCK was investigated.
Female NMRI mice having body weights of 20-25 g were used in groups of ten animals each. […] A control group received only the Tylose® solution or the solution containing the solubilizer polyethylene glycol in each case. 60 minutes later the animals were given a subcutaneous injection of 80 Ig/kg CCK-8. After a further 5 minutes the animals were each orally administered 0.3 ml of a charcoal suspension (5% charcoal in 2% strength Tylose solution). The mice were sacrificed 5 minutes later and subsequently dissected. They were examined to find whether charcoal suspension had advanced into the duodenum.
The percentage of animals in which the CCK effect was eliminated and charcoal suspension was found in the duodenum after administration of the test substances was determined.

[5] = dose 10 μmol/kg mouse oral, CCK-8 i.p. 60 min later
[6] = dose 0.215 μmol/kg mouse oral, CCK-8 s.c. 60 min later
[7] = dose 100 μmol/kg mouse oral, CCK-8 i.p. 60 min later
[8] = dose 1.0 μmol/kg mouse oral, CCK-8 s.c. 60 min later

SMILES	Ki [1]	% Inhibition of CCK-induced Gallbladder Emptying ([2]; dose 1 μmol/kg mouse oral, CCK-8 i.p. 60 min later)	% Inhibition of CCK-induced Gallbladder Emptying [2, 5]	Minimum toxic dose [3]	% of Animals in which the CCK Effect was Eliminated [4, 6]	% of Animals in which the CCK Effect was Eliminated ([4]; dose 0.681 μmol/kg mouse oral, CCK-8 s.c. 60 min later)	% Inhibition of CCK-induced Gallbladder Emptying ([2]; dose 4.6 μmol/kg mouse oral, CCK-8 i.p. 60 min later)	% Inhibition of CCK-induced Gallbladder Emptying [2, 7]	% Inhibition of CCK-induced Gallbladder Emptying ([2]; dose 0.1* μmol/kg mouse oral, * = administered in solution containing solubilizer)	% of Animals in which the CCK Effect was Eliminated [4, 8]	% of Animals in which the CCK Effect was Eliminated ([4]; dose 0.10* μmol/kg mouse oral, * = administered in solution containing solubilizer (PEG 400))
COc1ccc2c(c1)N(C)C(=O)C(NC(=O)c1cc3cccc4c3n1CCC4)N=C2c1ccccc1 (stereo not drawn) [Example 1, 3-[(4H-Pyrrolo[3,2,1-ij]-5,6-dihydroquinoline-2-carbonyl)-amino]-8-methoxy-1-methyl-2-oxo-5-phenyl-1H-2,3-dihydro-1,4-benzodiazepine]	1.35 nM	< 25%	66%	> 300 mg/kg	50%						
CN1C(=O)C(NC(=O)c2cc3cccc4c3n2CCC4)N=C(c2ccccc2)c2ccccc21 (stereo not drawn) [Example 6, 3-[(4H-Pyrrolo[3,2,1-ij]-5,6-dihydroquinoline-2-carbonyl)-amino]-1-methyl-2-oxo-5-phenyl-1H-2,3-dihydro-1,4-benzodiazepine]	3.24 nM		73%			40%					
COc1ccc2c(c1)N(C)C(=O)C(NC(=O)c1cc3cccc4c3n1CCC4)N=C2c1ccccc1F (stereo not drawn) [Example 9]	0.794 nM			> 300 mg/kg	50%		< 25%	99%			
COc1ccc2c(c1)N(C)C(=O)C(NC(=O)c1cc3cccc4c3n1CCC4)N=C2c1ccc(F)cc1F (stereo not drawn) [Example 15]	1.23 nM		< 25%					100%	< 25%	57%	90%
CN1C(=O)C(NC(=O)c2cc3cccc4c3n2CCC4)N=C(c2c(F)cccc2F)c2ccccc21 (stereo not drawn) [Example 20]	0.851 nM		25%	> 300 mg/kg						50%	
CN1C(=O)C(NC(=O)c2cc3cccc4c3n2CC4)N=C(c2ccccc2)c2ccccc21 (stereo not drawn) [Example 33]	3.72 nM		19%	> 300 mg/kg						50%	
